Results taken from patent US10231954B2, “Neurodegenerative therapies” (LYTIX BIOPHARMA AS, priority 2014, dated 2019).

What was measured:
Type in all cases: biochemical
JNK1 = JNK1 (Homo sapiens, UniProt P45983); test: Kinase profiling JNK1; settings: 100 micromolar inhibitor concentration, 100 is no change; for remaining activity at 100 µM: read-out: residual kinase activity, JNK1
Text: (§1) Any value less that 25 is considered to be highly significant inhibition.

S6K1 = S6K1 (Homo sapiens, UniProt P23443); test: Kinase profiling S6K1; settings: 100 micromolar inhibitor concentration, 100 is no change; for remaining activity at 100 µM: read-out: residual kinase activity, S6K1
Text: as §1

PDK1 = molecular target: T1, PDK1 (Homo sapiens, UniProt O15530); test: Kinase profiling PDK1; settings: 100 micromolar inhibitor concentration, 100 is no change; for remaining activity at 100 µM: read-out: residual kinase activity, PDK1
T1 sequence (O15530 1-556): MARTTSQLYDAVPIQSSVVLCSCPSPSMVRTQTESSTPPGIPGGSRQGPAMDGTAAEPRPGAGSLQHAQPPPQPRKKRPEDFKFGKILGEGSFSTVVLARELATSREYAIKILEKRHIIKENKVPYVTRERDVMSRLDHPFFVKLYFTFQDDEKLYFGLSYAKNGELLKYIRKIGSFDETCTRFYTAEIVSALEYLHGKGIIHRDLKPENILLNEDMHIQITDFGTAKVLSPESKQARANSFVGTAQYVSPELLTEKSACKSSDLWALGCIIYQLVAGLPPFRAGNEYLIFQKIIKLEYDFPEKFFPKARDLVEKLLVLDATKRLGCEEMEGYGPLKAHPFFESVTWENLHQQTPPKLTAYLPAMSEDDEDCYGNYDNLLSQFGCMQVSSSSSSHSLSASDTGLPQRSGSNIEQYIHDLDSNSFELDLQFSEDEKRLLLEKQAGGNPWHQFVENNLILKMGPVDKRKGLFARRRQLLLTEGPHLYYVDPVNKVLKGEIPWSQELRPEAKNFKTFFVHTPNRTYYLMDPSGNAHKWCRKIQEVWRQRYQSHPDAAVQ
Text: as §1

SmMLCK = SmMLCK (Homo sapiens, UniProt Q15746); test: Kinase profiling SmMLCK; settings: 100 micromolar inhibitor concentration, 100 is no change; for remaining activity at 100 µM: read-out: residual kinase activity, SmMLCK
IGF-1R = IGF-1R (Homo sapiens, UniProt P08069); test: Kinase profiling IGF-1R; settings: 100 micromolar inhibitor concentration, 100 is no change; for remaining activity at 100 µM: read-out: residual kinase activity, IGF-1R
Text: as §1

HER4 = HER4 (Homo sapiens, UniProt Q15303); test: Kinase profiling HER4; settings: 100 micromolar inhibitor concentration, 100 is no change; for remaining activity at 100 µM: read-out: residual kinase activity, HER4
Text: as §1

MST2 = molecular target: T2, MST2 (Homo sapiens, UniProt Q13188); test: Kinase profiling MST2; settings: 100 micromolar inhibitor concentration, 100 is no change; for remaining activity at 100 µM: read-out: residual kinase activity, MST2
T2 sequence (Q13188 1-491): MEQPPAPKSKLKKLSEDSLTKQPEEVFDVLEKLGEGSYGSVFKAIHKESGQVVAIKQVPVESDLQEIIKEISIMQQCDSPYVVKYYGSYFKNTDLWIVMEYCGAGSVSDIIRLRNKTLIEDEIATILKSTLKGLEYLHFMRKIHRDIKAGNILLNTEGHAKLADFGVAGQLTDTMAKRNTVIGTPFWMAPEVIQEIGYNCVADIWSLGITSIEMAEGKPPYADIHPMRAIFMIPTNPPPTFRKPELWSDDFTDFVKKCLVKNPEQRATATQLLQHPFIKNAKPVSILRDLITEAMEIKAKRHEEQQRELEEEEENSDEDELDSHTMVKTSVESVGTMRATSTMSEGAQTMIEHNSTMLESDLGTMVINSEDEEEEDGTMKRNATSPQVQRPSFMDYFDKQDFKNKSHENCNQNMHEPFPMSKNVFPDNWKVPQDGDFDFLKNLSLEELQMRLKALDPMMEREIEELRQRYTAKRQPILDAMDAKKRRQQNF
Text: as §1

TAK1 = molecular target: T3, TAK1 (Homo sapiens, UniProt O43318); test: Kinase profiling TAK1; settings: 100 micromolar inhibitor concentration, 100 is no change; for remaining activity at 100 µM: read-out: residual kinase activity, TAK1
T3 sequence (O43318 1-303 limits assumed): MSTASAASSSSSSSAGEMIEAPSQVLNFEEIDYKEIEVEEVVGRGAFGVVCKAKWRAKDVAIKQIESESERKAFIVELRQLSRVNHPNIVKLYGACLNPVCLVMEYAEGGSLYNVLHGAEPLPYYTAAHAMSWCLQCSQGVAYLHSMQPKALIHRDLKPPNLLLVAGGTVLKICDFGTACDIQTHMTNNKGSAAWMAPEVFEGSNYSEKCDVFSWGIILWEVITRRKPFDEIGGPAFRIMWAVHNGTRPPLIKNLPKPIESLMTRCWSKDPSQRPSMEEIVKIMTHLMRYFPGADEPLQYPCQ
T3 sequence (Q15750 437-504 partner limits assumed): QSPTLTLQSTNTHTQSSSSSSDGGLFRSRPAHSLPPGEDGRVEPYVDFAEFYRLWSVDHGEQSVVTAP
Text: as §1

MLK3 = MLK3 (Homo sapiens, UniProt Q16584); test: Kinase profiling MLK3; settings: 100 micromolar inhibitor concentration, 100 is no change; for remaining activity at 100 µM: read-out: residual kinase activity, MLK3
Text: as §1

PKBb = PKBb (Homo sapiens, UniProt P31751); test: Kinase profiling PKBb; settings: for remaining activity at 100 µM: read-out: residual kinase activity, PKBb
Text: as §1

SYK = SYK (Homo sapiens, UniProt P43405); test: Kinase profiling SYK; settings: 100 micromolar inhibitor concentration, 100 is no change; for remaining activity at 100 µM: read-out: residual kinase activity, SYK
Text: as §1

IRAK4 = molecular target: T4, IRAK4 (Homo sapiens, UniProt Q9NWZ3); test: Kinase profiling IRAK4; settings: 100 micromolar inhibitor concentration, 100 is no change; for remaining activity at 100 µM: read-out: residual kinase activity, IRAK4
T4 sequence (Q9NWZ3 1-460): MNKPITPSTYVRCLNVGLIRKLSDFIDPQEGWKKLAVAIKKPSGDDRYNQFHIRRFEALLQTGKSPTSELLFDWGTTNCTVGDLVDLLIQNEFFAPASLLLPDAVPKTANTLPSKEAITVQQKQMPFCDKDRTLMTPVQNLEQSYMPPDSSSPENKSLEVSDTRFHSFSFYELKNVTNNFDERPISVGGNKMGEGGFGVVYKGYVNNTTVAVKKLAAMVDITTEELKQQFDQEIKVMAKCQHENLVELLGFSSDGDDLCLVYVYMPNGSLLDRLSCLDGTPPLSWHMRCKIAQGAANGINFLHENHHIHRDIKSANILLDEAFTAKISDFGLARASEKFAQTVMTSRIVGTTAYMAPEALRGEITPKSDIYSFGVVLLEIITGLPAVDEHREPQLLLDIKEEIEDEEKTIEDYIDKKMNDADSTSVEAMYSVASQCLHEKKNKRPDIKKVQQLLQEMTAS
Text: as §1

PAK4 = PAK4 (Homo sapiens, UniProt O96013); test: Kinase profiling PAK4; settings: 100 micromolar inhibitor concentration, 100 is no change; for remaining activity at 100 µM: read-out: residual kinase activity, PAK4
Text: as §1

MSK1 = MSK1 (Homo sapiens, UniProt O75582); test: Kinase profiling MSK1; settings: 100 micromolar inhibitor concentration, 100 is no change; for remaining activity at 100 µM: read-out: residual kinase activity, MSK1
Text: as §1

PRK2 = PRK2 (Homo sapiens, UniProt Q16513); test: Kinase profiling PRK2; settings: 100 micromolar inhibitor concentration, 100 is no change; for remaining activity at 100 µM: read-out: residual kinase activity, PRK2
Text: as §1

Chain of PKBb (P31751 whole entry): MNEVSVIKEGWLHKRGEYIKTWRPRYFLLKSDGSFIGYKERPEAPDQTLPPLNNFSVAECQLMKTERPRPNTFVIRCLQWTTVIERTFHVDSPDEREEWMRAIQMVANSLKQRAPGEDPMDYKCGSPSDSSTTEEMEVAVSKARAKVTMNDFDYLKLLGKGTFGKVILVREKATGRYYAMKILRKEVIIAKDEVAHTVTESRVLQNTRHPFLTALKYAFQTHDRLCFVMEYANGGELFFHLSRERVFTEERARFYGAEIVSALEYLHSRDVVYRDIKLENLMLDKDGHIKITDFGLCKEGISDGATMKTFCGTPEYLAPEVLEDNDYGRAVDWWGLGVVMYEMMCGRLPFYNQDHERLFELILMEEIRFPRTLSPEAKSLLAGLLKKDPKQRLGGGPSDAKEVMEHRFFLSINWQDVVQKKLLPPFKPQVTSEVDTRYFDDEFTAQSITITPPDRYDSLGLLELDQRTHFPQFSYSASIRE
Chain of SmMLCK (Q15746 923-1914): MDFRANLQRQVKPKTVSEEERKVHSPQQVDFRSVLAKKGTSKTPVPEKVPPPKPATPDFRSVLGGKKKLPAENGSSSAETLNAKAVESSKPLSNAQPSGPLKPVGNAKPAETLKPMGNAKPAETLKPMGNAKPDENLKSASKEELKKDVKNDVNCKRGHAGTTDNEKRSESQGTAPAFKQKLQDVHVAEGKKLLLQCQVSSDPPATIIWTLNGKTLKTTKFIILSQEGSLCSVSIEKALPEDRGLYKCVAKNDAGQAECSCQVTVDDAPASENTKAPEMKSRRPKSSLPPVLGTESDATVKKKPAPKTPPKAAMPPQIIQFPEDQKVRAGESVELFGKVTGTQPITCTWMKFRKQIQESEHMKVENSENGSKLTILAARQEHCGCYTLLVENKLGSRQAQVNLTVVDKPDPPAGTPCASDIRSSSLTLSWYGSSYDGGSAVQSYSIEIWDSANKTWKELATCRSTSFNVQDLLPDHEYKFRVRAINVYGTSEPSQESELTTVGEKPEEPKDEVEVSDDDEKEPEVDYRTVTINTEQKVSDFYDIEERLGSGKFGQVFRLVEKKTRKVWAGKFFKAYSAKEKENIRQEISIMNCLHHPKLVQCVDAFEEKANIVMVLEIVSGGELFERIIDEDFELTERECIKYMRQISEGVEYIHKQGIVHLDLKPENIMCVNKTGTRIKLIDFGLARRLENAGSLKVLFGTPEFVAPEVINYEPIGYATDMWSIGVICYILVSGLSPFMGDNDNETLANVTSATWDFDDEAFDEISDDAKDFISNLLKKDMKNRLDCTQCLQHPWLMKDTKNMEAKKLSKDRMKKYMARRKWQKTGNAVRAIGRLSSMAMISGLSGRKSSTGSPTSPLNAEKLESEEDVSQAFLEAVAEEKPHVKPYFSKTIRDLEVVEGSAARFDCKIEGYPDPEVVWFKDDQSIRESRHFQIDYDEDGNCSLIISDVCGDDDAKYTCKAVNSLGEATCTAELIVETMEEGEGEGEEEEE
Chain of PRK2 (Q16513 whole entry, species assumed): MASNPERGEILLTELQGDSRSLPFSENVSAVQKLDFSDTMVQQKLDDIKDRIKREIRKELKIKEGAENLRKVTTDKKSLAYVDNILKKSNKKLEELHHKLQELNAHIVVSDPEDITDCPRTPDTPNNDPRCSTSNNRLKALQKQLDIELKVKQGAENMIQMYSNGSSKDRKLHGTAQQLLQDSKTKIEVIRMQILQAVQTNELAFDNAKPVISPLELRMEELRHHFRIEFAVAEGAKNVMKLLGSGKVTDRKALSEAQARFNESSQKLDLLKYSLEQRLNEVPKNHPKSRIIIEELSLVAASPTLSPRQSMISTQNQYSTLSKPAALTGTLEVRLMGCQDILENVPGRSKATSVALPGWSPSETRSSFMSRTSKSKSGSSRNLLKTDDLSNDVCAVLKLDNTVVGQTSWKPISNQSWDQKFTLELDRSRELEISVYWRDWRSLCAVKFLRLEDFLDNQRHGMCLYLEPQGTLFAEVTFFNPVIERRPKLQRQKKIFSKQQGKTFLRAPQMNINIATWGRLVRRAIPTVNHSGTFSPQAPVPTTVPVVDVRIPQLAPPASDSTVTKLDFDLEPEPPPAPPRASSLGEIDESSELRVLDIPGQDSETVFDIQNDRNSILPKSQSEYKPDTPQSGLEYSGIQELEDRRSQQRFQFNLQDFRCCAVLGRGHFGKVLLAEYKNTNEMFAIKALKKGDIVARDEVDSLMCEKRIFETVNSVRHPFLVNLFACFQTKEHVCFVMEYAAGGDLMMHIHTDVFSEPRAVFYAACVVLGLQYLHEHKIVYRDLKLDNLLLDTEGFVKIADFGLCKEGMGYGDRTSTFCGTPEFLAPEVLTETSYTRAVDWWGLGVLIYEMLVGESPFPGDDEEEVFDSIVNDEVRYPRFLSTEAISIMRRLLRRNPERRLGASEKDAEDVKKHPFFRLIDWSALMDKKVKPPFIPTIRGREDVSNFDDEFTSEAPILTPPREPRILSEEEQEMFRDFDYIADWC
Chain of MLK3 (Q16584 whole entry, species assumed): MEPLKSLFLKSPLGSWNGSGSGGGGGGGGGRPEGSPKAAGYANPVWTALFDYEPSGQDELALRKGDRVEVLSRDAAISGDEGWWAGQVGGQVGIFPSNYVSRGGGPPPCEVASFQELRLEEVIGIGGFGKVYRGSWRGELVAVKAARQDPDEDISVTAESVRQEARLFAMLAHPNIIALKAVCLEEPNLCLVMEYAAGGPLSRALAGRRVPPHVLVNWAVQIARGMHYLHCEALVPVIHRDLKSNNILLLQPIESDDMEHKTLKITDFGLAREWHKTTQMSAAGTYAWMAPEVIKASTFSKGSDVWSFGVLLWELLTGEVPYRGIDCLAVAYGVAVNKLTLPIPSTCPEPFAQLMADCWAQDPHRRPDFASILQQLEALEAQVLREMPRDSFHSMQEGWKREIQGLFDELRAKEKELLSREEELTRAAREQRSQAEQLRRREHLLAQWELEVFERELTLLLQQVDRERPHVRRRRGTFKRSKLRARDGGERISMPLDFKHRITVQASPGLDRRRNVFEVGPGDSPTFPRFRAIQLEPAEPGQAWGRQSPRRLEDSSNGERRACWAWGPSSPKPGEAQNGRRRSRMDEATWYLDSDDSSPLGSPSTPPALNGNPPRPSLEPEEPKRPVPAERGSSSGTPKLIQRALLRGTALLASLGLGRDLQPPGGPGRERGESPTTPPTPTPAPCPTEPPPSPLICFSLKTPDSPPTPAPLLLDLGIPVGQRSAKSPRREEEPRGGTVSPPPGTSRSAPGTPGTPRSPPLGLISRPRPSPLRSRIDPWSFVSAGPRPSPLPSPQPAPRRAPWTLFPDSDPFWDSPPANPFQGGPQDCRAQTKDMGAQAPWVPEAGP
Chain of MSK1 (O75582 whole entry, species assumed): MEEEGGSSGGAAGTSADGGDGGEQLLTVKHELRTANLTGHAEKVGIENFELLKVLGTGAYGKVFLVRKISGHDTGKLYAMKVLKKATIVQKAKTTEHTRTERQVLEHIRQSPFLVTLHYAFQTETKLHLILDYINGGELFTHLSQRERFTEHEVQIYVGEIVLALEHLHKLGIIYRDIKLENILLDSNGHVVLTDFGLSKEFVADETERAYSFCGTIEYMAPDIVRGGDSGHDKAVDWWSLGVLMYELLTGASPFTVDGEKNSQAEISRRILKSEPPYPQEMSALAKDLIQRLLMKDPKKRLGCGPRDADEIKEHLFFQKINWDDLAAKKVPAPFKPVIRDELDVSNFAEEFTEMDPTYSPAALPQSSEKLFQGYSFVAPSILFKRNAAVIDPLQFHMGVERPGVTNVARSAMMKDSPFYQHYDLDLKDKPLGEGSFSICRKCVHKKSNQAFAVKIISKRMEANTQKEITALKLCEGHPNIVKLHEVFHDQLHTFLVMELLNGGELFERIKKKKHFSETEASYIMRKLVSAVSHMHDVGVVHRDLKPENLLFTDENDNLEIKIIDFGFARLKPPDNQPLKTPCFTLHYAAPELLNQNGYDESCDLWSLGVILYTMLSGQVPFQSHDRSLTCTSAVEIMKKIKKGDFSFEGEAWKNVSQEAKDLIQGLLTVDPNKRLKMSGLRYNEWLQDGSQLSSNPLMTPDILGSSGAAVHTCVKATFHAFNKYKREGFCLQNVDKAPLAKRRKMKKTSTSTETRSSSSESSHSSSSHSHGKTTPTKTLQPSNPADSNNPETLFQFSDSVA
Chain of S6K1 (P23443 whole entry, species assumed): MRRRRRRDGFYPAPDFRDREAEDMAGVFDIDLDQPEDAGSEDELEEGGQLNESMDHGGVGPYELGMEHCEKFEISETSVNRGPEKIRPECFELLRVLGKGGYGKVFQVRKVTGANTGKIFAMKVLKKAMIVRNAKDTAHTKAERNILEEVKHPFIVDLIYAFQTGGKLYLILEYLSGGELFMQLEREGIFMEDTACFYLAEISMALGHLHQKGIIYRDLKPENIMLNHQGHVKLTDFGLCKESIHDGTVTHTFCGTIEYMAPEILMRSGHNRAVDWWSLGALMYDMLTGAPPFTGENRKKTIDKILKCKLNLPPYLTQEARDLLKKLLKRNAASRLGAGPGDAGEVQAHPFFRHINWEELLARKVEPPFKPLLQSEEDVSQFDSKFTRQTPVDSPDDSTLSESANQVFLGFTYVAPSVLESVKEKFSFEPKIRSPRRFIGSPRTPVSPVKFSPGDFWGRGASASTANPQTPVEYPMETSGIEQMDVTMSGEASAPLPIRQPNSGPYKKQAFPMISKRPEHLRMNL
Chain of JNK1 (P45983 whole entry, species assumed): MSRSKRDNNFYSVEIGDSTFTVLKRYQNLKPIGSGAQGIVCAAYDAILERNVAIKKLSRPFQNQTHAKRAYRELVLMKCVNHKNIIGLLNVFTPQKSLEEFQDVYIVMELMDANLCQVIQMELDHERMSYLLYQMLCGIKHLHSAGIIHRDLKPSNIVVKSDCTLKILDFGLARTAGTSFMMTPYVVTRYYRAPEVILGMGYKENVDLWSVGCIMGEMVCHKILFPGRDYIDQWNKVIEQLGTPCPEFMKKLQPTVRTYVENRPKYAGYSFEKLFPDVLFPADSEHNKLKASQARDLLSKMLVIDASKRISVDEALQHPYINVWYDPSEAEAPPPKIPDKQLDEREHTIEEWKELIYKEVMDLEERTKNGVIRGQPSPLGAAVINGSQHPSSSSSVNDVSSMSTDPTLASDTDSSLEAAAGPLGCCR

| Compound | remaining activity at 100 µM (JNK1) [%] | remaining activity at 100 µM (S6K1) [%] | remaining activity at 100 µM (PDK1) [%] | remaining activity at 100 µM (SmMLCK) [%] | remaining activity at 100 µM (IGF-1R) [%] | remaining activity at 100 µM (HER4) [%] | remaining activity at 100 µM (MST2) [%] | remaining activity at 100 µM (TAK1) [%] | remaining activity at 100 µM (MLK3) [%] | remaining activity at 100 µM (PKBb) [%] | remaining activity at 100 µM (SYK) [%] | remaining activity at 100 µM (IRAK4) [%] | remaining activity at 100 µM (PAK4) [%] | remaining activity at 100 µM (MSK1) [%] | remaining activity at 100 µM (PRK2) [%] | further results |
| --- | --- | --- | --- | --- | --- | --- | --- | --- | --- | --- | --- | --- | --- | --- | --- | --- |
| CC(=O)Nc1nc2cc(C(F)(F)F)ccc2s1 [Compound 03-73] | 120 | 77 | 105 | 71 | 77 | 110 | 80 | 45 | 57 | 104 | 74 | 60 | 71 | 91 | 91 | – |
| CC(=O)Nc1nc2cc(F)ccc2s1 [Compound 03-77] | 80 | 48 | 91 | 66 | 58 | 92 | 80 | 46 | 44 | 93 | 82 | 43 | 97 | 74 | 74 | – |
| CC(=O)Nc1nc2ccc(C(F)(F)F)cc2s1 [Compound 01-90] | 104 | 85 | 93 | 80 | 84 | 97 | 99 | 83 | 51 | 100 | 100 | 12 | 67 | 87 | 94 | – |
| O=C(Nc1nc2ccc(O)cc2s1)c1cccnc1 [Compound 08-44] | – | – | – | – | – | – | – | – | – | – | – | – | – | – | – | residual kinase activity, JNK1 (JNK1): 102; residual kinase activity, S6K1 (S6K1): 17; residual kinase activity, PDK1 (PDK1): 77; residual kinase activity, SmMLCK (SmMLCK): 19; residual kinase activity, IGF-1R (IGF-1R): 54; residual kinase activity, HER4 (HER4): 17; residual kinase activity, MST2 (MST2): 57; residual kinase activity, TAK1 (TAK1): 18; residual kinase activity, MLK3 (MLK3): 26; residual kinase activity, PKBb (PKBb; 100 micromolar inhibitor concentration, 100 is no change): 45; residual kinase activity, SYK (SYK): 71; residual kinase activity, IRAK4 (IRAK4): 32; residual kinase activity, PAK4 (PAK4): 64; residual kinase activity, MSK1 (MSK1): 49; residual kinase activity, PRK2 (PRK2): 46 |
